Measurements: patent US11406645B2, “Acetamide thienotriazolodiazepines and uses thereof” (Dana-Farber Cancer Institute, Inc., priority 2015, dated 2022)

Assay: not given
Conditions: male, CD1, mouse, in vivo

| SMILES | F |
| --- | --- |
| Cc1sc2c(c1C)C(c1ccc(Cl)cc1)=N[C@@H](CC(=O)N1CCn3c(nnc3C(F)(F)F)C1)c1nnc(C)n1-2 [Compound 605] | 6% |
| Cc1sc2c(c1C)C(c1ccc(Cl)cc1)=N[C@@H](CC(=O)NCCCN1CCC(N3CCCCC3)CC1)c1nnc(C)n1-2 [Compound 602] | 2% |
| Cc1sc2c(c1C)C(c1ccc(Cl)cc1)=N[C@@H](CC(=O)NCCCN1CCCC1)c1nnc(C)n1-2 [Compound 604] | 7% |
| Cc1sc2c(c1C)C(c1ccc(Cl)cc1)=N[C@@H](CC(=O)N1CCC(N3CCCCC3)CC1)c1nnc(C)n1-2 [Compound 603] | 20% |
| Cc1sc2c(c1C)C(c1ccc(Cl)cc1)=N[C@@H](CC(=O)NCC1CCN(CCN(C)C)CC1)c1nnc(C)n1-2 [Compound 601] | 4% |

Assay: Pharmacokinetics in male CD1 mice, oral administration (whole blood)
Conditions: oral 10 mg/kg, N=3, whole blood
Protocol: Pharmacokinetic parameters were determined by administration of a candidate bromodomain inhibitor to male CD1 mice. Intravenous doses were delivered at 5 mg/kg, and oral doses at 10 mg/kg (N=3). […] The compound concentration in mouse blood was monitored over 24-hour time period to check the compound concentration in blood at 5 min, 30 min, 1 hour, 2 hours, 6 hours, 12 hours, and 24 hour via a series bleeding.

| SMILES | Tmax |
| --- | --- |
| Cc1sc2c(c1C)C(c1ccc(Cl)cc1)=N[C@@H](CC(=O)OC(C)(C)C)c1nnc(C)n1-2 [JQ1] | 15 min |
